Like-named read-outs stand apart in the source and are kept apart here.
What was measured:
mtGPAT1 = biological target: T1, mtGPAT1 (Mus musculus, UniProt Q61586); assay: In vitro mtGPAT inhibition: acylation of 14C-glycerol 3-phosphate with palmitoyl-CoA, scintillation counting; assay type: biochemical
T1 construct: from tissue; host or cells: mitochondrial preparation
T1 sequence (Q61586 1-827): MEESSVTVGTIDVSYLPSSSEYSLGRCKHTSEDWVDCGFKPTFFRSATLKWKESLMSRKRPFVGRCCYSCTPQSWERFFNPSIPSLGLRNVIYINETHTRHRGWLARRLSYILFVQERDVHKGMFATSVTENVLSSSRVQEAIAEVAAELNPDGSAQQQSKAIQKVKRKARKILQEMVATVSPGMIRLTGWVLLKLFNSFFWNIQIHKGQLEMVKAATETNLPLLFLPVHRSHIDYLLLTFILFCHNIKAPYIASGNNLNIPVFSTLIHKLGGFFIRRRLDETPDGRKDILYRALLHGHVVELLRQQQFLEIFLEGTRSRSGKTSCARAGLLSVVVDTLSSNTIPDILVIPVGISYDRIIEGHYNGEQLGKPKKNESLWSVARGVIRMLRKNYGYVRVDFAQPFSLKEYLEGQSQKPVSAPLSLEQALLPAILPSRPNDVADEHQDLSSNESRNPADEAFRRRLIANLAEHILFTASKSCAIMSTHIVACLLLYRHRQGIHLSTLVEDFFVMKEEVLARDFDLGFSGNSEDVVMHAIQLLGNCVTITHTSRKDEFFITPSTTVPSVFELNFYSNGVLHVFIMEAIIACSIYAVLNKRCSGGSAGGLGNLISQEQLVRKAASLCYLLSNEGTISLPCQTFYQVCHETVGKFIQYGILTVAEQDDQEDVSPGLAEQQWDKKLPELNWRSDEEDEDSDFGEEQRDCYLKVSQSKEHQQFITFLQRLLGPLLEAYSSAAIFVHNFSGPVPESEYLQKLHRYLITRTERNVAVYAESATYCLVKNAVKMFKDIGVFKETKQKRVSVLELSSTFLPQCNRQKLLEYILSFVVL
Procedure: The compounds produced as described above were evaluated for their ability to inhibit the acylation of glycerol-3-phosphate in vitro. The acylation reaction between ^14C-labelled glycerol-3-phosphate and palmitoyl-CoA, initiated by adding mtGPAT, was measured in the presence of varying concentrations of the inhibitor by scintillation counting as described in more detail below.
A mitochondrial preparation of glycerol 3-phosphate acyltransferase was added to the incubation mixture containing ^14C-labeled glycerol 3-phosphate, palmitoyl-CoA, and varying inhibitor concentrations to initiate the reaction. After ten min, the reaction was terminated by adding chloroform, methanol, and 1% perchloric acid. Five minutes later, more chloroform and perchloric acid were added, and the upper aqueous layer was removed. After washing three times with 1% perchloric acid, the organic layer was evaporated under nitrogen, and the amount of ^14C present was counted to determine the extent of reaction inhibition. Data points were recorded in triplicate, and IC50 values were calculated based on the amount of test inhibitor necessary to produce 50% of mtGPAT activity observed in the absence of inhibitor but in the presence of DMSO vehicle control.

FAO = FAO (SC 150 and Max) entries of the compound data sheets
[1] = compounds 4a-t and 7a-t, read-out: GPAT IC50
[2] = Table 2, sulfonamides 15a-i and 17a-f, triplicate, read-out: IC50 (μM) ± SD, In Vitro Anti-mtGPAT1 Activity
[3] = Table 3, sulfonamides 21a-c and 24a-f, triplicate, read-out: IC50 (μM) ± SD, In Vitro Anti-mtGPAT1 Activity
[4] = Table 1, sulfonamides 5a-f and 13a-f, triplicate, read-out: IC50 (μM) ± SD, In Vitro Anti-mtGPAT1 Activity

| IC50 (mtGPAT1; [1]) [µM] | Structure (SMILES) | FAO SC 150 (FAO) | further results |
| --- | --- | --- | --- |
| 31.2 | CCCCCCCCS(=O)(=O)Nc1ccc(-c2ccccc2F)cc1C(=O)O | FAS (IC50) Not Tested CPT I Stim Not Tested FAO SC 150 Neg SA/MH (MIC) ug/ml |  |
| 18 | CCCCCCCCS(=O)(=O)Nc1cc(-c2ccccc2-c2ccccc2)ccc1C(=O)O | FAS (IC50) Not Tested CPT I Stim Not Tested FAO SC 150 Neg SA/MH (MIC) ug/ml |  |
|  | O=C(O)c1ccc(NS(=O)(=O)c2ccccc2)cc1 [Compound 15b, 4-(Phenylsulfonamido)benzoic acid] |  | IC50 (mtGPAT1; [2]): 41.9 ± 5.3 µM |
|  | CCCCCCCCCS(=O)(=O)Nc1ccc(C(=O)O)cc1 [Compound 15a, 4-(Nonylsulfonamido)benzoic acid] |  | IC50 (mtGPAT1; [2]): 29.1 ± 4.3 µM |
| 19.2 | CCCCCCCCS(=O)(=O)Nc1cc(-c2cc(Cl)cc(Cl)c2)ccc1C(=O)O |  |  |
| 18.4 | CCCCCCCCS(=O)(=O)Nc1cc(-c2ccc(Cl)cc2)ccc1C(=O)O | FAS (IC50) Not Tested CPT I Stim Not Tested FAO SC 150 Neg SA/MH (MIC) ug/ml |  |
| 23.1 | CCCCCCCCS(=O)(=O)Nc1cc(-c2ccccc2Cl)ccc1C(=O)O | FAS (IC50) Not Tested CPT I Stim Not Tested FAO SC 150 Neg SA/MH (MIC) ug/ml |  |
| 22.2 | CCCCCCCCS(=O)(=O)Nc1ccc(-c2cccs2)cc1C(=O)O | FAS (IC50) Not Tested CPT I Stim Not Tested FAO SC 150 Neg SA/MH (MIC) ug/ml |  |
|  | O=C(O)c1ccc(NS(=O)(=O)CCc2ccccc2)cc1 [Compound 17b, 4-(2-Phenylethylsulfonamido)benzoic acid] |  | IC50 (mtGPAT1; [2]): 63 ± 12.9 µM |
|  | CS(=O)(=O)Nc1ccccc1C(=O)O [Compound 24a, 2-(Methylsulfonamido)benzoic acid] |  | IC50 (mtGPAT1; [3]): 28.6 ± 4.6 µM |
| 13 | CCCCCCCCS(=O)(=O)Nc1ccc(-c2cccc(Cl)c2)cc1C(=O)O | FAS (IC50) Not Tested CPT I Stim Not Tested FAO SC 150 Neg SA/MH (MIC) ug/ml |  |
| 17.2 | CCCCCCCCS(=O)(=O)Nc1ccc(-c2ccc(Cl)cc2Cl)cc1C(=O)O | FAS (IC50) Not Tested CPT I Stim Not Tested FAO SC 150 Neg SA/MH (MIC) ug/ml |  |
| 57.7 | CCCCCCCCS(=O)(=O)Nc1ccc(-c2cccc(O)c2)cc1C(=O)O |  |  |
|  | CCCCCCCCCS(=O)(=O)Nc1ccc(Cl)cc1C(=O)O [Compound 24d, 5-Chloro-2-(nonylsulfonamido)benzoic acid] |  | IC50 (mtGPAT1; [3]): 11.5 ± 0.7 µM |
| 52 | CCCCCCCCS(=O)(=O)Nc1ccc(-c2cccc(F)c2)cc1C(=O)O | FAS (IC50) Not Tested CPT I Stim Not Tested FAO SC 150 Neg SA/MH (MIC) ug/ml |  |
| 22.5 | CCCCCCCCS(=O)(=O)Nc1cc(-c2cccs2)ccc1C(=O)O | FAS (IC50) Not Tested CPT I Stim Not Tested FAO SC 150 Neg SA/MH (MIC) ug/ml |  |
| 55.5 | CCCCCCCCS(=O)(=O)Nc1cc(-c2cccc(O)c2)ccc1C(=O)O |  |  |
| 18.3 | CCCCCCCCS(=O)(=O)Nc1cc(-c2ccc(Cl)cc2Cl)ccc1C(=O)O |  |  |
| 23.4 | CCCCCCCCS(=O)(=O)Nc1ccc(-c2ccccc2OC)cc1C(=O)O | FAS (IC50) Not Tested CPT I Stim Not Tested FAO SC 150 Neg SA/MH (MIC) ug/ml |  |
|  | CCCCCCCCCS(=O)(=O)Nc1ccccc1CP(=O)(O)O [Compound 13b, 2-(Nonylsulfonamido)benzylphosphonic acid] |  | IC50 (mtGPAT1; [4]): 30.6 µM |
| 702 | CCCCCCCCS(=O)(=O)Nc1ccc(-c2ccc(C(C)=O)cc2)cc1C(=O)O | FAS (IC50) Not Tested CPT I Stim Not Tested FAO SC 150 Neg SA/MH (MIC) ug/ml |  |
|  | CCCCCCCCS(=O)(=O)Nc1cccc(P(=O)(O)O)c1 [Compound 21b, 3-(Octylsulfonamido)phenylphosphonic acid] |  | IC50 (mtGPAT1; [3]): 25.3 ± 5.4 µM |
| 60.9 | CCCCCCCCS(=O)(=O)Nc1ccc(-c2ccc(O)cc2)cc1C(=O)O |  |  |
| 66.1 | CCCCCCCCS(=O)(=O)Nc1cc(-c2ccc(O)cc2)ccc1C(=O)O |  |  |

| IC50 (mtGPAT1; [1]) [µM] | Structure (SMILES) | FAO SC 150 (FAO) | further results |
| --- | --- | --- | --- |
| 65.8 | CCCCCCCCS(=O)(=O)Nc1cc(-c2cccnc2)ccc1C(=O)O | FAS (IC50) Not Tested CPT I Stim Not Tested FAO SC 150 Neg SA/MH (MIC) ug/ml |  |
| 14.4 | CCCCCCCCS(=O)(=O)Nc1ccc(-c2ccccc2Cl)cc1C(=O)O | FAS (IC50) Not Tested CPT I Stim Not Tested FAO SC 150 Neg SA/MH (MIC) ug/ml |  |
| 28.7 | CCCCCCCCS(=O)(=O)Nc1cc(-c2cccc(F)c2)ccc1C(=O)O |  |  |
|  | CCCCCCCCS(=O)(=O)Nc1ccc(P(=O)(O)O)cc1 [Compound 21a, 4-(Octylsulfonamido)phenylphosphonic acid] |  | IC50 (mtGPAT1; [3]): 33.3 ± 3.8 µM |
|  | O=C(O)c1ccc(NS(=O)(=O)c2ccc(Cl)cc2)cc1 [Compound 15c, 4-(4-Chlorophenylsulfonamido)benzoic acid] |  | IC50 (mtGPAT1; [2]): 33.7 ± 1.3 µM |
|  | CCCCCCCCS(=O)(=O)Nc1ccccc1P(=O)(O)O [Compound 21c, 2-(Octylsulfonamido)phenylphosphonic acid] |  | IC50 (mtGPAT1; [3]): 25.7 ± 2.5 µM |
| 17.4 | CCCCCCCCS(=O)(=O)Nc1cc(-c2ccc(-c3ccccc3)cc2)ccc1C(=O)O | FAS (IC50) Not Tested CPT I Stim Not Tested FAO SC 150 Neg SA/MH (MIC) ug/ml |  |
| 25.3 | CCCCCCCCS(=O)(=O)Nc1cc(-c2ccc(F)cc2)ccc1C(=O)O |  |  |
| 19 | CCCCCCCCS(=O)(=O)Nc1ccc(-c2cc(Cl)cc(Cl)c2)cc1C(=O)O |  |  |
|  | O=C(O)c1ccccc1NS(=O)(=O)Cc1ccccc1 [Compound 17e, 2-(Phenylmethylsulfonamido)benzoic acid] |  | IC50 (mtGPAT1; [2]): 40.7 ± 1.2 µM |
| 62.6 | CCCCCCCCS(=O)(=O)Nc1cc(-c2ccccc2O)ccc1C(=O)O |  |  |
| 63.4 | CCCCCCCCS(=O)(=O)Nc1ccc(-c2ccccc2O)cc1C(=O)O | FAS (IC50) Not Tested CPT I Stim Not Tested FAO SC 150 Neg SA/MH (MIC) ug/ml |  |
| 76.3 | CCCCCCCCS(=O)(=O)Nc1ccc(-c2cccnc2)cc1C(=O)O | FAS (IC50) Not Tested CPT I Stim Not Tested FAO SC 150 Neg SA/MH (MIC) ug/ml |  |
|  | O=C(O)c1cccc(NS(=O)(=O)CCc2ccccc2)c1 [Compound 17d, 3-(2-Phenylethylsulfonamido)benzoic acid] |  | IC50 (mtGPAT1; [2]): 50.3 ± 4.4 µM |
| 20.6 | CCCCCCCCS(=O)(=O)Nc1ccc(-c2ccc(F)cc2)cc1C(=O)O |  |  |
|  | CCCCCS(=O)(=O)Nc1ccccc1CP(=O)(O)O [Compound 13a, 2-(Pentylsulfonamido)benzylphosphonic acid] |  | IC50 (mtGPAT1; [4]): 41.4 ± 8.4 µM |
|  | CCCCCCCCCS(=O)(=O)Nc1ccc(CP(=O)(O)O)cc1 [Compound 13f, 4-(Nonylsulfonamido)benzylphosphonic acid] |  | IC50 (mtGPAT1; [4]): 30.7 µM |
|  | O=C(O)c1ccc(NS(=O)(=O)Cc2ccccc2)cc1 [Compound 17a, 4-(Phenylmethylsulfonamido)benzoic acid] |  | IC50 (mtGPAT1; [2]): 64.5 ± 11.6 µM |
|  | O=C(O)c1cccc(NS(=O)(=O)c2ccc(Cl)cc2)c1 [Compound 15f, 3-(4-Chlorophenylsulfonamido)benzoic acid] |  | IC50 (mtGPAT1; [2]): 23.6 ± 1.2 µM |
|  | O=C(O)c1cccc(NS(=O)(=O)c2ccccc2)c1 [Compound 15e, 3-(Phenylsulfonamido)benzoic acid] |  | IC50 (mtGPAT1; [2]): 38.3 ± 7.6 µM |
|  | O=C(O)c1ccccc1NS(=O)(=O)CCc1ccccc1 [Compound 17f, 2-(2-Phenylethylsulfonamido)benzoic acid] |  | IC50 (mtGPAT1; [2]): 46.4 ± 4.5 µM |
|  | O=C(O)c1cccc(NS(=O)(=O)Cc2ccccc2)c1 [Compound 17c, 3-(Phenylmethylsulfonamido)benzoic acid] |  | IC50 (mtGPAT1; [2]): 52.1 ± 9 µM |
|  | O=C(O)c1ccccc1NS(=O)(=O)c1ccc(Cl)cc1 [Compound 15i, 2-(4-Chlorophenylsulfonamido)benzoic acid] |  | IC50 (mtGPAT1; [2]): 33.5 ± 2.5 µM |
| 55.7 | CCCCCCCCS(=O)(=O)Nc1cc(-c2ccccc2F)ccc1C(=O)O |  |  |
